Like-named read-outs stand apart in the source and are kept apart here.
How the values were obtained:
Sprague Dawley rats = experiment: Observation of potential adverse behavior (behavioral signs) in the rat DC-MES studies; format: in vivo; conditions: for behavioral signs concentration (BSC) / plasma EC50 ratio (Tolerability / EC50 Rat MES): rat DC-MES
Description: Animals were observed by the scientist(s) responsible for dosing for the first 30 min after dosing for and again at the time of assay (2 hr post dose) for signs of abnormal behavior.

[1] = Bioanalytical assessment of plasma and brain concentrations after rat DC-MES assay; format: in vivo; conditions: rat, in vivo, Rat DC-MES
wild-type mice (CF-1) = experiment: DC-Maximal electroshock seizure assay (DC-MES); format: in vivo, mouse
Method in brief: (§1)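 Compounds given 2 hr before corneal DC electroshock; phenytoin i.p. in saline. CF1 mice (9–12 weeks): 50 mA, 60 Hz, 0.2 s; SD rats (5–6 weeks): 150 mA, 60 Hz, 0.3 s; 0.5 ms pulse width, eyes anaesthetised with proparacaine. Absence of tonic-clonic hindlimb extension scored protected (0), blinded scoring.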

[2] = Bioanalytical assessment of plasma and brain concentrations after 6 Hz assay; format: in vivo, mouse; conditions: Scn8a^N1768D/+, mouse, in vivo, SCN8A mouse 6HZ
Method in brief: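 Blood (cardiac puncture, EDTA) and whole brains taken at end of the in vivo assay; brain homogenized in 1:1 acetonitrile/water. Plasma and homogenate extracted by acetonitrile protein precipitation with internal standard, quantified by UHPLC-ESI-MS/MS against a 1/X-weighted linear calibration.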

[3] = tested on: wild-type Sprague Dawley rats; experiment: DC-Maximal electroshock seizure assay (DC-MES); format: in vivo, rat; conditions: for EC50: Rattus norvegicus
Method in brief: as §1

For `COC[C@@H](NC(C)=O)C(=O)NCc1ccccc1` [lacosamide, Lacosamide, reference compound], the “minimal plasma concentration provoking behavioral signs (BSC)” value (Sprague Dawley rats; rat) was 123 µM, the “behavioral signs concentration (BSC) / plasma EC50 ratio (Tolerability / EC50 Rat MES)” value (Sprague Dawley rats) was 5.0 fold and the “behavioral signs concentration (BSC) / plasma EC50 ratio (Tolerability / EC50 Rat MES)” value (Sprague Dawley rats; listed as Lacosamide) was 6.3 fold. For the same compound, the concentration at 2 h ([1]; 2 mg/kg, Study18060, 2 mg/kg, read-out: Mean [Brain]) was 0.641 µM, the concentration at 2 h ([1]; 2 mg/kg, Study18060, 2 mg/kg, read-out: Mean [Palsma]) was 2.97 µM and the concentration at 2 h ([1]; 6 mg/kg, Study18060, 6 mg/kg, read-out: Mean [Brain]) was 1.78 µM. It also gave a concentration at 2 h ([1]; 6 mg/kg, Study18060, 6 mg/kg, read-out: Mean [Palsma]) of 8.43 µM, a concentration at 2 h ([1]; 12 mg/kg, Study18060, 12 mg/kg, read-out: Mean [Brain]) of 3.74 µM and a concentration at 2 h ([1]; 12 mg/kg, Study18060, 12 mg/kg, read-out: Mean [Palsma]) of 22.9 µM. For the same compound, the concentration at 2 h ([1]; 100 mg/kg, Study18068, 100 mg/kg, read-out: Mean [Brain]) was 38.2 µM, the concentration at 2 h ([1]; 100 mg/kg, Study18068, 100 mg/kg, read-out: Mean [Palsma]) was 73.5 µM and the EC50 (wild-type mice (CF-1); Mus musculus, 2 h, read-out: brain EC50) was 7.1 µM. For the same compound, the “WT mouse DC-MES acute Fraction of animals seizing” value (“WT mouse DC-MES acute Fraction” for short) (wild-type mice (CF-1); Study18003, 3 mg/kg) was 0.625, the “WT mouse DC-MES acute Fraction” value (wild-type mice (CF-1); Study18003, 10 mg/kg) was 0.375 and the “WT mouse DC-MES acute Fraction” value (wild-type mice (CF-1); Study18003, 30 mg/kg) was 0.125. The “WT mouse DC-MES acute Fraction” value (wild-type mice (CF-1); Study18053, 3 mg/kg) was 0.6667, the “WT mouse DC-MES acute Fraction” value (wild-type mice (CF-1); Study18063, 3 mg/kg) was 0.75 and the concentration at 2 h ([2]; 1 mg/kg, Study18011, 1 mg/kg, read-out: Mean [Brain]) was 0.728 µM. The concentration at 2 h ([2]; 1 mg/kg, Study18011, 1 mg/kg, read-out: Mean [Palsma]) was 1.12 µM, the concentration at 2 h ([2]; 3 mg/kg, Study18007, 3 mg/kg, read-out: Mean [Brain]) was 2.84 µM and the concentration at 2 h ([2]; 3 mg/kg, Study18007, 3 mg/kg, read-out: Mean [Palsma]) was 3.48 µM. The concentration at 2 h ([2]; 10 mg/kg, Study18007, 10 mg/kg, read-out: Mean [Brain]) was 9.32 µM, the concentration at 2 h ([2]; 10 mg/kg, Study18007, 10 mg/kg, read-out: Mean [Palsma]) was 10.7 µM and the concentration at 2 h ([2]; 10 mg/kg, Study18028, 10 mg/kg, read-out: Mean [Brain]) was 7.58 µM. For the same compound, the concentration at 2 h ([2]; 10 mg/kg, Study18028, 10 mg/kg, read-out: Mean [Palsma]) was 11.8 µM, the concentration at 2 h ([2]; 10 mg/kg, Study18042, 10 mg/kg, read-out: Mean [Brain]) was 3.27 µM and the concentration at 2 h ([2]; 10 mg/kg, Study18042, 10 mg/kg, read-out: Mean [Palsma]) was 14.4 µM. It also gave a concentration at 2 h ([2]; 30 mg/kg, Study18007, 30 mg/kg, read-out: Mean [Brain]) of 21 µM, a concentration at 2 h ([2]; 30 mg/kg, Study18007, 30 mg/kg, read-out: Mean [Palsma]) of 25.2 µM and a concentration at 2 h ([2]; 30 mg/kg, Study18011, 30 mg/kg, read-out: Mean [Brain]) of 19.2 µM. It also gave a concentration at 2 h ([2]; 30 mg/kg, Study18011, 30 mg/kg, read-out: Mean [Palsma]) of 29.6 µM, a concentration at 2 h ([2]; 56 mg/kg, Study18011, 56 mg/kg, read-out: Mean [Brain]) of 28.3 µM and a concentration at 2 h ([2]; 56 mg/kg, Study18011, 56 mg/kg, read-out: Mean [Palsma]) of 44.7 µM. For the same compound, the EC50 ([3]; 2 h, read-out: brain EC50) was 4.3 µM, the EC50 ([3]; read-out: plasma EC50) was 24.4 µM and the “Rat DC-MES Fraction of animals seizing” value ([3]; Study18060, 2 mg/kg) was 1. For the same compound, the “Rat DC-MES Fraction of animals seizing” value ([3]; Study18060, 6 mg/kg) was 0.8571, the “Rat DC-MES Fraction of animals seizing” value ([3]; Study18060, 12 mg/kg) was 0.5714 and the “Rat DC-MES Fraction of animals seizing” value ([3]; Study18068, 100 mg/kg) was 0.
